Measured values published in patent US8623377B2, “Joint-homing peptides and uses thereof” (University of Maryland, Baltimore, priority 2011, dated 2014).

Tests used:
[1] = system: adjuvant arthritis in Lewis rats; assay: Antiarthritic activity in the adjuvant arthritis (AA) model, arthritic score; type: in vivo, Lewis rat
Protocol: (§1) FIG. 3A: Group of arthritic Lewis rats (n=4 per group) were injected with a peptide (AD, NQR, or RGD) or PBS i.v. on the days indicated by the arrows either at the onset or just after the onset of arthritis. The its were monitored regularly for the disease severity, presented as “arthritic score”. […] The sections were graded for histopathological features associated with arthritis. B, bone; C, cartilage, JS, joint space; SIC, synovium-infiltrating cells.
(§2) The synthetic peptide corresponding to the selected phage-encoded peptide was diluted in PBS and injected i.v. into Lewis rats beginning either at the onset or just after the onset of arthritis after Mtb injection. The peptide was injected to rats on alternate days at a dose of 1 or 2 mg/kg body weight. A total of three or four injections were given to each rat. Control animals received an equal volume of PBS. All rats were graded regularly for clinical signs of arthritis (36). The hind paws of these rats were harvested and processed for histopathological examination.
AA was induced in Lewis rats by immunizing them with 1 mg/rat of heat-killed M. tuberculosis H37Ra (Mtb; Difco) in 200 μL of mineral oil (Sigma-Aldrich) via s.c. injection at the base of the tail. Beginning on day 7 after immunization, the rats were observed regularly for signs of arthritis in the paws. The severity of arthritis was evaluated based on erythema and swelling as described previously. The highest score for each paw was 4, and the total maximum score for each rat was 16. The course of AA in the Lewis rat involved the following phases: incubation (days 0-8), onset (days 9-11), peak (days 15-18), and recovery (days 21-27).

Akt = assay: VEGF-induced signaling in HUVECs, Western blot p-Akt; type: cell-based, human; conditions: peptide 10, 50, 100 μg/mL 1 h, then VEGF 10 ng/mL 20 min
Description: FIG. 6A: HUVECs were stimulated with VEGF and treated with the indicated concentrations of peptides. Phosphorylated ERK1/2 and Akt, as well as total ERK1/2 and Akt, were detected by Western blot analysis. FIG. 6B: Thereafter, p-ERK1/2 and p-Akt were quantified by densitometry, normalized to total ERK1/2 (left) and Akt (right), respectively, and compared with cells in serum-free medium. The results of a representative experiment from a set of three independent experiments are shown. *P<0.05, compared with the positive control.
HUVECs were grown in F-12K medium in the presence of endothelial cell growth supplement (ECGS) (BD Biosciences) and 15% FBS. Confluent cells were starved in basal medium (without ECGS and FBS) for 6 h. Then the cells were pretreated for 1 h with different concentrations (10, 50, and 100 μg/mL) of a peptide (NQR, ADK, or RGD) in fresh basal medium, followed by treatment with VEGF (10 ng/mL) for another 20 min. The conditional medium was discarded, and the cells were lysed using a lysis buffer containing protease inhibitors and phosphatase inhibitors. The cell lysate was then centrifuged, and the resulting supernatant was used for analysis of signaling molecules using specific antibodies to human pERK1/2, ERK1/2, pAkt, Akt, and GAPDH (Cell Signaling Technology) by Western blot analysis. The intensity of the bands in the gel was quantified by densitometry. The levels of p-ERK1/2 and p-Akt were normalized to total ERK1/2 and Akt, respectively, and compared with cells in serum-free medium.

[2] = system: leukocyte infiltration into the joints of arthritic rats; assay: In vivo migration of PKH67-labeled leukocytes into the joints; set-up: species or system Lewis rat
LPS-stimulated HUVECs = assay: Internalization of FITC-labeled peptide in LPS-stimulated HUVECs; type: cell-based, human
Protocol: FIG. 2A: Binding of specific phage encoding the peptide NQR or ADK to the vascular endothelium was visualized by immunohistochemical examination of the hind paw section of the rthritic rats using the anti-T7 phage antibody. The binding of phage was tested in the presence or absence of the corresponding synthetic peptide. BV, blood vessel, L, lumen. FIG. 2B: Arthritic rats were injected with specific phage (ADK phage, left; NQR phage, center; or RGD phage, right) in the presence or absence of the corresponding synthetic peptide, and the titer of the phage recovered from the synovial tissue was assessed. *P<0.01. FIG. 2C: CD31-expressing endothelial cells were isolated from arthritic rat joints (upper) or the liver (lower) and stained with DAPI (blue), FITC-labeled peptide NQR (green), or Alexa Fluor 594-labeled anti-rat CD31 antibody (red). Also shown is the staining overlay (merge) of green and red (yellow). The inset is an enlarged view of a single cell; original magnification, 20×. FIG. 2D: LPS-stimulated HUVECs were stained with DAPI and FITC-labeled peptide NQR and observed under a fluorescence microscope, original magnification, 100×.

[3] = system: hind paw joints of arthritic Lewis rats; assay: Histopathological evaluation of hind paw joints of arthritic rats; type: in vivo, Lewis rat; conditions: H&E-stained hind paw sections
Protocol: as §1, §2
Hind paws of rats were harvested, skinned, and fixed with 10% phosphate buffered formalin (Fisher Scientific) for 3-7 d (1). […] Tissue sections (5 μm) were placed on a glass slide, stained with H&E (Sigma-Aldrich), and assessed for morphological changes and cellular infiltrates.

“CLDNQRPKC (Synthetic peptide homing to joint in an animal) [NQR peptide, joint-homing phage-derived synthetic peptide]” was tested, and the “difference in arthritic score versus PBS/ADK” value ([1]; from day 15 to day 27 (FIG. 3A center)) was “significant”, the “difference in arthritic score versus PBS” value ([1]; from day 15 to day 27 (FIG. 3A right)) was “significant” and the “suppression of the arthritic process” value ([1]; i.v. injection around the time of onset of arthritis, 1 or 2 mg/kg on alternate days) was “suppressed the arthritic process in a dose-dependent manner”. The down-modulation of arthritis ([1]; injected just after the onset of AA) was “effective in down-modulating arthritis”, the “effect on VEGF-induced pAkt” value (Akt) was “had no effect on pAkt” and the “cell type on which the effect on infiltration was more marked” value ([2]; CD3+ T cells vs CD11b/c+ myeloid cells, flow cytometry) was “more marked on CD3+ T cells than on CD11b/c+ myeloid cells”. The “leukocyte infiltration into the joints” value ([2]; versus nontreated arthritic or ADK-treated arthritic rats, 24 h after cell transfer) was “significantly less leukocyte infiltration”, the “cellular uptake of peptide” value (LPS-stimulated HUVECs; FITC-labeled peptide, LPS-stimulated HUVECs) was “transported across the cell membrane into the cytoplasm and the nucleus” and the “time by which most peptide accumulated in the perinuclear area” value (LPS-stimulated HUVECs; after addition to the cells) was at most 45 min. The “joint damage (histopathology) versus PBS-treated arthritic rats” value [3] was “much less damage”.
